Results on two compounds are retold here after patent US7981901B2, “Compositions and methods for targeting cerebral circulation and treatment of headache” (priority 2001, dated 2011).

Molecules are shown by their SMILES.

For series [1], the system named is headache. Put plainly: Topical NSAID formulations in treatment of headache (inventors' observation). Type of series: in vivo, human. Particulars: topically applied to tender spot or area superficial to carotid, temporal and/or vertebral artery. An excerpt:
Especially preferred compositions include a xanthine derivative in a concentration of about 4% (wt) to 70% (wt) and ketoprofen in a concentration of about 0.5% (wt) to 50% (wt). With respect to the xanthine derivative, the same considerations as described above apply. Furthermore, such particularly preferred compositions may be formulated in a lecithin-containing formulation or a pluronic-lecithin-organogel formulation (supra). It should be especially recognized, that compositions including a xanthine derivative or an NSAID have generally been described in the art. However, the inventors observed that formulations including an NSAID other than Ketoprofen generally fail to provide relief in treatment of a headache, when topically applied to a person (either to a tender spot, or to an area superficial to a carotid artery, a temporal artery and/or a vertebral artery). […] While not wishing to be bound by a particular hypothesis or theory, the inventors contemplate that the effect of Ketoprofen may be at least in part mediated by a muscle-relaxant effect rather than via a suppressive effect in inflammation.

In series [2] the test system is fever. The following applies: oral delivery; cited from earlier work.

In the case of `CC(C(=O)O)c1cccc(C(=O)c2ccccc2)c1` (centres unmarked) [Ketoprofen, 2-(meta-benzoylphenyl)propionic acid], in series [1], the “relief in treatment of a headache” value is given as “the only NSAID effective in treatment of a headache”.
For `CC(=O)Nc1ccc(O)cc1` [acetaminophen, Acetaminophen], in series [2], the “time to achieve sufficient concentration in the plasma to lower the fever” value is listed as “at least 20 minutes”.
